Measured values: paper PMC3565751, “The Feasibility of Enzyme Targeted Activation for Amino Acid/Dipeptide Monoester Prodrugs of Floxuridine; Cathepsin D as a Potential Targeted Enzym” (Molecules, 2012)

Tests used:
Capan-2 cell homogenate = experiment: Prodrug hydrolysis in Capan-2 cell homogenate with the presence and the absence of selective enzyme inhibitors; type: in vitro ADME; details: 37 °C
Description: Hydrolysis StudiesPreparation of Capan-2 cell homogenates. Preparation of cell homogenates has been reported previously. Confluent Capan-2 cells (2 plates; 150 mm × 25 mm plate) were rinsed with saline twice. The cells were washed off with 5 mL of pH 7.4 phosphate buffer (10 mmol/L) and the lysed cells by ultrasonication (Micro ultrasonic cell disrupter Model KT40, Kontes, Vineland, NJ, USA) were spun down by centrifugation.
(§1) Preparation of Cytosolic Enzyme Extract. Confluent Caco-2 cells and Capan-2 cells (2 plates; 150 mm × 25 mm plate) were rinsed with saline twice. The cells were washed off with 1 mL of pH 7.4 phosphate buffer (10 mmol/L) and the enzymes were extracted through 30 gauge needle 10 times in ice-cold bath. Cell suspension was spun at 10,000 × g for 2 h at 4 °C and the supernatant was spun at 39,000 × g for 2 h at 4 °C. Protein amount was quantified with the Bio-Rad (Hercules, CA, USA) DC Protein Assay using bovine serum albumin as a standard. The protein amount was adjusted to 500 µg/mL and the hydrolysis reactions were carried out in 96-well plates (Corning). Caco-2 cells and Capan-2 cell suspensions (250 µL) were placed in triplicate wells either presence or absence of various inhibitors, the reactions were started with the addition of substrate (200 µM), and wells were incubated at 37 °C for 120 min (time points; 0, 5, 10, 30, 60, and 120 min). At each time point, aliquot sample (35 µL) was removed and added to 150 µL of acetonitrile (ACN) with 0.1% TFA to prevent the further degradation. The mixtures were filtered with a 0.45 µm filters at 1,000 × g for 10 min at 4 °C. The filtrate wasthen analyzed via reverse-phaseHPLC.
(§2) The initial rates of hydrolysis were used to obtain the apparent first-order rate constants and estimate the half-lives. The apparent first-order degradation rate constants of various floxuridine prodrugs at 37 °C were determined by plotting the logarithm of prodrug remaining as a function of time. The slopes of these plots are related to the rate constant, k, and given by:
k = 2.303 × slope (log C vs. time) (1)
The degradation half-lives were then estimated by the equation: […]
(§3) The concentrations of prodrugs and their metabolites were determined on a Waters HPLC system (Waters, Inc., Milford, MA, USA). The HPLC system consisted of two Waters pumps (model 515), a Waters autosampler (WISP model 712), and a Waters UV detector (996 photodiode array detector). The system was controlled by Waters Millennium 32 software (version 3.0.1). Samples were injected onto a Waters Xterra C18 reverse-phase column (5 µm, 4.6 × 250 mm) equipped with a guard column. The compounds were eluted using gradient method. All prodrugs were run with the solvent B gradient changing 0% to 56% at a rate of 2%/min during a 28-min run. Standard curves generated for each prodrug and their parent drugs were used for quantitation of integrated area under peaks.

human cathepsin D = biological target: T1, human cathepsin D (Homo sapiens, UniProt P07339); experiment: Prodrug stability with human cathepsin D; type: biochemical; details: pH 7.4 phosphate buffer, 37 °C, 200 µM substrate
T1 construct: cathepsin B (human liver), and cathepsin D (human liver) were obtained from Sigma Chemical Co; purchased Sigma Chemical Co (St. Louis, MO, USA); host or cells: human liver (tissue-derived)
T1 sequence (P07339 169-412 limits assumed): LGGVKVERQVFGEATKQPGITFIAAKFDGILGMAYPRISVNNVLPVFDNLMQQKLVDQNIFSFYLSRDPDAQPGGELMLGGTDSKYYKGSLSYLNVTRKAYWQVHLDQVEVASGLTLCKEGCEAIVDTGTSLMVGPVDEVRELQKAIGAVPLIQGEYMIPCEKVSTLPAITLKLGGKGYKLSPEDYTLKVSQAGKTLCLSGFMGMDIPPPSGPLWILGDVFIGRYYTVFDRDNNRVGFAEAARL
T1 sequence (P07339 65-162 limits assumed): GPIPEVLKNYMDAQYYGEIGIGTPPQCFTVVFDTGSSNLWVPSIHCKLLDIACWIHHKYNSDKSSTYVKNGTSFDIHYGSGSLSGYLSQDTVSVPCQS
Text: (§4) The high expression levels of cathepsins in tumors have been reported. It has been investigated if the protein levels of cathepsin B and D would associate with pathological parameters in order to assess the difference in protein levels of cathepsins as possible tumor biomarkers. Cathepsin B, one of the highest gene expressions in enzymes of Capan-2 cell, is a cysteine endopeptidase and reportedly has similar activity to carboxypeptidase and peptidyl-dipeptidase. On the other hand, cathepsin D has been reported that it preferentially hydrolyzes the peptide bond of bulky hydrophobic amino acids and the peptide bond between Phe-Phe of Bz-Arg-Gly-Phe-Phe-Pro-4MbNA [75, 76, 77]. The metabolic stability of floxuridine prodrugs was assessed using human cathepsin B and D in pH 7.4 phosphate buffer. […] However, the enzyme specificity between cathepsin B and D in prodrug activation for those two prodrugs was not observed.
(§5) Prodrug stability with Cathepsin B and D. Lyophilized enzyme powder was dissolved and adjusted to 2.5 mg/mL of pure enzyme, human cathepsin B and D. The hydrolysis reactions were immediately started by adding substrates (200 µM) in 96-well plates (Corning). The reactions were carried out at 37 °C for 120 min (time points; 0, 5, 10, 30, 60, and 120 min). At each time point, aliquot sample (35 µL) was removed and added to 150 µL of acetonitrile (ACN) with 0.1% TFA. The mixtures were filtered with a 0.45 µm filters at 1,000 × g for 10 min at 4 °C. The filtrate was then analyzed via reverse-phase HPLC.
as §2, with “The slopes of these plots are related to the rate constant, k, and given by:” left out
(§6) The concentrations of prodrugs and their metabolites were determined on a Waters HPLC system (Waters, Inc., Milford, MA, USA). […] Standard curves generated for each prodrug and their parent drugs were used for quantitation of integrated area under peaks.

human cathepsin B = biological target: T2, human cathepsin B (Homo sapiens, UniProt P07858); experiment: Prodrug stability with human cathepsin B; type: biochemical; details: pH 7.4 phosphate buffer, 37 °C, 200 µM substrate
T2 construct: cathepsin B (human liver), and cathepsin D (human liver) were obtained from Sigma Chemical Co; purchased Sigma Chemical Co (St. Louis, MO, USA); host or cells: human liver (tissue-derived)
Text: as §4, §5
as §2, with “The slopes of these plots are related to the rate constant, k, and given by:” left out
as §6

[1] = tested on: Capan-2 cell homogenates and cytosolic enzyme extracts; experiment: Prodrug stability in cytosolic enzyme extract versus whole cell homogenate of Capan-2 cells; type: in vitro ADME
Description: In stability studies of test compounds in cell homogenates, the location of enzymes in living cells is not considered and the inaccessible enzymes in vivo condition may be able to degrade those analytes in this in vitro setting. Therefore, the result of prodrug stabilities in cell homogenate may be different to one in vivo, where all enzymes are arranged in all specific locations. The experiments of prodrug activation concerning the location of enzymes in cells were performed at 37 °C in Capan-2 cell homogenates and in cytosolic enzyme extracts. For the comparison purpose, the same experiments were performed at 37 °C in Caco-2 cell homogenates and in cytosolic enzyme extracts. […] The difference between them was minimal (1.4- to 2.5 fold). […] In Capan-2 cells, the stabilities of 5′-O-L-phenylalanyl-L-glycylfloxuridine and 5′-O-L-phenylalanylfloxuridine were improved 7.4- and 7.3-fold, while the ones of 5′-O-L- phenylalanyl-L-tyrosylfloxuridine and 5′-O-L-glycyl-L-leucylfloxuridine were declined 3.9- and 6.0-fold, respectively.
as §1, §2, §3

Capan-2 cell lines = experiment: Cell proliferation (XTT) assay; type: cell-based; details: 4 mmol/L, 4 h drug treatment
Description: The percentage of growth inhibition for amino acid/dipeptide monoester prodrugs of floxuridine in Capan-2 cell was evaluated via 2,3-bis[2-methoxy-4-nitro-5-sulfophenyl]-2H-tetrazolium-5-carboxanilideinner salt (XTT) assays (Figure 3). The growth inhibitory effect of tested floxuridine prodrugs after 4 h drug treatment range from 0.0–91.1% at 4 h, 0.0–84.2% at 8 h, and 41.8–84.8% at 24 h in Capan-2 cell lines. […] While specific activation enzymes for 5′-O-L-leucyl-L-glycylfloxuridine and 5′-O-L-phenylalanylfloxuridine have not been identified, those enzymes may be highly localized at the plasma membrane and cytosol. Thus, the activation of those prodrugs took place immediately after translocation of prodrugs into the cells and started inhibiting tumor growth. Leucine and phenylalanine are reportedly good substrates for aminopeptidases and carboxylesterase, respectively.
Cell proliferation studies were conducted with Capan-2 cell lines. The cells were seeded into 96-well plates at […] per well and allowed to attach/grow for 24 h before drug solutions were added. The culture medium (RPMI-1640 + 10% fetal bovine serum) was removed and the cells were gently washed once with sterile pH 6.0 uptake buffer (145 mM NaCl, 0.5 mM MgCl2, 1 mM NaH2PO4, 1 mM CaCl2, 3 mM KCl, 5 mM glucose, and 5 mM MES). Floxuridine prodrugs and floxuridine were diluted in pH 6.0 uptake buffer to 4 mmol/L using no drug as a 100% viability control. The wash buffer was removed and 25 µL drug solution per well were added and incubated at 37 °C for 4 h in the cell incubator. After this time, the drug solutions were removed and the cells were again gently washed twice with sterile uptake buffer. RPMI-1640 was then added to each well after washing. The cells were allowed to recover for 4 h, 8 h, or 24 h before evaluating cell viability via 2,3-bis[2-methoxy-4-nitro-5-sulfophenyl]-2H-tetrazolium-5-carboxanilide inner salt (XTT) assays. […] Absorbance readings at 450 nm were recorded.

[2] = design: method as in PMID 18719516; details: pH 7.4 phosphate buffer; mean ± s.d.; ref [50]; cited from earlier work

Half Life, DPP 3 Inhibitor (Capan-2 cell homogenate; Capan-2 cell homogenate with 1,10-phenanthroline, pH 7.4): 30.1 ± 10.0 min | Half Life, TPP 2 Inhibitor (Capan-2 cell homogenate; Capan-2 cell homogenate with H-Ala-Ala-Phe-CMK CF3CO2H, pH 7.4): 19.6 ± 0.4 min | Half Life, Cathepsin D Inhibitor (Capan-2 cell homogenate; Capan-2 cell homogenate with pepstatin A, pH 7.4): 10.2 ± 3.0 min | Half Life, Aminopeptidase Inhibitor (Capan-2 cell homogenate; Capan-2 cell homogenate with puromycin, pH 7.4): 25.7 ± 0.4 min | Half Life, Capan-2 Cell Homogenate (Capan-2 cell homogenate; no inhibitor, pH 7.4 phosphate buffer, 200 µM substrate, mean ± s.d.): 4.3 ± 0.9 min | Stability (degradation) against cathepsin D compared with absence of enzyme (human cathepsin D): significant degradation | Stability (degradation) against cathepsin B compared with absence of enzyme (human cathepsin B): significant degradation | Hydrolysis products detected in cell homogenates and cytosolic enzyme extracts [1]: only floxuridine was detected | Fold longer half life (stability improved) in cytosolic extract than in Capan-2 cell homogenate ([1]; 37 °C, pH 7.4 phosphate buffer): 7.4 fold
SMILES: N[C@@H](Cc1ccccc1)C(=O)NCC(=O)OC[C@H]1O[C@@H](n2cc(F)c(=O)[nH]c2=O)C[C@@H]1O [5'-O-L-phenylalanyl-L-glycyl-floxuridine]
Growth inhibition of cancer cells at 4 h and 8 h (Capan-2 cell lines): did not exhibit the growth inhibition of cancer cells | Half Life, Phosphate Buffer pH 7.4 [2]: 132.1 ± 10.2 min
